Experimental data from US20150336881A1, “AMIDE COMPOUND AND USE THEREOF FOR PEST CONTROL” (Sumitomo Chemical Company, Limited, priority 2012, published 2015).

These compounds were tested on Blattella germanica (assay: Test Example 9: treated filter paper with sucrose bait, Blattella germanica). Conditions: 500 ppm, 0.7 ml on filter paper, male imagoes of Blattella germanica, after 6 days.
Assay type: in vivo
Description: The formulations of Compounds of Present Invention 3, 10 and 11 as obtained in Formulation Example 5 were diluted with water, so as to have a concentration of the active ingredient of 500 ppm, to prepare a diluted liquid for test.
(§1) A filter paper having a diameter of 5.5 cm was spread on the bottom of a polyethylene cup having the same diameter and 0.7 ml of the diluted liquid for test was added dropwise onto the filter paper, and 30 mg of sucrose was uniformly placed as bait. Into the polyethylene cup, 2 male imagoes of Blattella germanica were released, and the cup was sealed with a lid. After 6 days, the life and death of Blattella germanica was examined, and the mortality was calculated.
Work on CCS(=O)(=O)c1cc(C(F)(F)F)ccc1C(=O)N(C)c1ccc(C(F)(F)C(F)(F)F)cc1 [compound 10] yielded a mortality of 100%. CCS(=O)(=O)c1cc(C(F)(F)F)ccc1C(=O)N(C)c1ccc(SC(F)(F)F)cc1 [compound 11] gave a mortality of 100%.

What follows are compounds tested on Adoxophyes orana fasciata (assay: Test Example 7: sprayed apple tree, Adoxophyes orana fasciata larvae released). Conditions: in vivo.
Description: (§2) The formulations of Compounds of Present Invention 1 to 5, 8 to 14, 18, 19, 25, 26, 54, 55, 60, 68 to 74, 76 to 78, 85, 86, 88 and 90 and Intermediate Compounds M6-8 to M6-13 as obtained in Formulation Example 5 were diluted with water, so as to have a concentration of the active ingredient of 500 ppm, to prepare a diluted liquid for test.
On the other hand, an apple tree was planted in a plastic cup, and grown until the seventh-eighth true leaf was spread. To the apple tree was sprayed in an amount of 20 mL/cup of the diluted liquid for test. After the drug solution was dried, 60 first-instar Adoxophyes orana fasciata were released, and the plastic cup the bottom of which was cut off and on which a filter paper was put was upside-down and covered. After 7 days, the number of surviving insects was counted, and the mortality was calculated according to the following equation:
Mortality (%)=(Number of dead insects/Number of tested insects)×100.
CCSc1cc(C(F)(F)F)ccc1C(=O)Nc1ccc(C(F)(F)F)cc1 [Intermediate Compound M6-1, 2-ethylsulfanyl-4-trifluoromethyl-N-(4-trifluoromethyl-phenyl)-benzamide] showed a mortality of 100%. CCS(=O)(=O)c1cc(C(F)(F)F)ccc1C(=O)N(C)c1ccc(C(F)(F)C(F)(F)F)cc1 [compound 10] gave a mortality of 100%. In the case of CCSc1ccccc1C(=O)N(C)c1ccc(C(F)(F)C(F)(F)F)cc1 [compound 18], the mortality is reported as 100%. For CCSc1ccccc1C(=O)N(C)c1ccc(SC(F)(F)F)cc1 [compound 19], the mortality was 100%. Compound CCS(=O)(=O)c1ccccc1C(=O)N(C)c1ccc(C(F)(F)C(F)(F)F)cc1 [compound 25] has a mortality of 100%. CCS(=O)(=O)c1ccccc1C(=O)N(C)c1ccc(SC(F)(F)F)cc1 [compound 26] gave a mortality of 100%. In the case of CCSc1cc(C(F)(F)F)ccc1C(=O)N(C)c1ccc(OC(F)(F)F)c(Br)c1 [compound 60], the mortality is reported as 100%. CCSc1cc(C(F)(F)F)ccc1C(=O)N(C)c1ccc(C(F)(F)F)c(Cl)c1 [compound 68] showed a mortality of 100%.

Each compound was assayed on Musca domestica (assay: Test Example 8: treated filter paper with sucrose bait, Musca domestica). Conditions: 0.7 ml on filter paper, female imagoes of Musca domestica, after 24 hours.
Assay type: in vivo
Description: Each of formulations of Compounds of Present Invention 1 to 5, 10, 18, 19, 25, 26, 60 and 68 and Intermediate Compound M6-1 as obtained in Formulation Example 5 was diluted with water, so as to have a concentration of the active ingredient of 500 ppm, to prepare a diluted liquid for test.
as §1, with “10 female” for “2 male”, “Musca domestica” for “Blattella germanica”, “24 hours,” for “6 days,”
CCSc1cc(C(F)(F)F)ccc1C(=O)Nc1ccc(C(F)(F)F)cc1 [Intermediate Compound M6-1, 2-ethylsulfanyl-4-trifluoromethyl-N-(4-trifluoromethyl-phenyl)-benzamide] was tested, and the mortality at 500 ppm was 100%.

Each compound was assayed on Culex pipiens pallens (assay: Test Example 10: Culex pipiens pallens larvae in treated water). Conditions: 24 h; active ingredient concentration 3.5 ppm in water, last-instar larvae of Culex pipiens pallens, one day later.
Assay type: in vivo
Description: as §2, with “11, 13,” for “14,”, “44, 53 to” for “54,”, “55, 59,” for “55,”, “78, 86” for “76”, “to” for “to 78, 85, 86,”, “M6-3, M6-4, M6-11, M6-12 and M6-23” for “M6-8 to M6-13”
0.7 ml of the diluted liquid for test was added to 100 ml of ion-exchanged water (active ingredient concentration: 3.5 ppm). 20 last-instar larvae of Culex pipiens pallens were released into the solution. One day later, the life and death of the Culex pipiens pallens was examined, and the mortality of the pest was calculated.
Work on CCSc1cc(C(F)(F)F)ccc1C(=O)Nc1ccc(C(F)(F)C(F)(F)F)cc1 [Intermediate Compound M6-3, 2-ethylsulfanyl-N-(4-pentafluoroethyl-phenyl)-4-trifluoromethyl-benzamide] yielded a mortality at 3.5 ppm of no less than 95%. In the case of CCSc1cc(C(F)(F)F)ccc1C(=O)Nc1ccc(SC(F)(F)F)cc1 [Intermediate Compound M6-4, 2-ethylsulfanyl-N-(4-trifluoromethylsulfanyl-phenyl)-4-trifluoromethyl-benzamide], the mortality at 3.5 ppm is reported as no less than 95%.
